Laboratory results: PubChem BioAssay (NCI)
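Following 48 hours of exposure in 96-well plates, responses at five concentrations were used to interpolate endpoints linearly. GI50 is the concentration that inhibits growth by half. TGI is the concentration that stops growth completely.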

Assays:
Experiment in all cases: DTP human tumour cell line panel, 48 h
U251 CNS = system: U251 CNS
MOLT-4 leukemia = system: MOLT-4 leukemia
RXF 393 renal = system: RXF 393 renal
MDA-MB-435 = system: MDA-MB-435
HOP-62 NSCLC = system: HOP-62 NSCLC
HL-60(TB) leukemia = system: HL-60(TB) leukemia
HOP-92 NSCLC = system: HOP-92 NSCLC
NCI-H226 lung = system: NCI-H226 lung
BT-549 breast = system: BT-549 breast
UO-31 renal = system: UO-31 renal

Row | SMILES | TGI (U251 CNS) [µM] | TGI (MOLT-4 leukemia) [µM] | TGI (RXF 393 renal) [µM] | TGI (MDA-MB-435) [µM] | TGI (HOP-62 NSCLC) [µM] | TGI (HL-60(TB) leukemia) [µM] | TGI (HOP-92 NSCLC) [µM] | TGI (NCI-H226 lung) [µM] | TGI (BT-549 breast) [µM] | TGI (UO-31 renal) [µM] | GI50 (U251 CNS) [µM] | GI50 (RXF 393 renal) [µM] | GI50 (MDA-MB-435) [µM] | GI50 (HOP-92 NSCLC) [µM] | GI50 (NCI-H226 lung) [µM]
1 | c1coc(-c2nccc3c2[nH]c2ccccc23)c1 | > 100 | > 100 | > 100 | > 100 | > 100 | > 100 | > 100 | 95.8 |  |  |  |  |  |  | 
2 | O=C(c1ccccc1)N1CCN(C(=S)NC2CCCCC2)C1=S | 21.6 | 56 |  | 38 | 37.3 | 50.3 | 36.7 | 36.1 | 44.2 | 30.5 |  |  |  |  | 
3 | CCn1c2nc(=O)n(CCCCCCCCSC(c3ccccc3)(c3ccccc3)c3ccccc3)c(=O)c-2nc2ccccc21 | > 100 | 24.6 | > 100 | > 100 | > 100 | 6.51 | 53.1 | > 100 |  | > 100 |  |  |  |  | 
4 | Cn1cnc(N2CCCC2)c(C#N)c1=S | > 100 | > 100 | > 100 | > 100 | > 100 | > 100 | > 100 | > 100 |  | 70.3 |  |  |  |  | 
5 | COc1cccc2c1C(=O)c1c(O)c3c(c(O)c1C2=O)C[C@@](O)(C(C)=O)CC3S(=O)(=O)O (some centres not stated) | > 100 | > 100 | > 100 |  | > 100 | > 100 | > 100 | > 100 |  | > 100 |  |  |  |  | 
6 | Cc1c(C(=O)O)n2c(=S)[nH]nc2c2ccccc12 | > 100 | > 100 | > 100 | > 100 | > 100 | > 100 | > 100 | > 100 |  | > 100 |  |  |  |  | 
7 | CCOC(=O)/C=C/C(=O)O/C=C/[N+](=O)[O-] | > 100 | > 100 | > 100 | > 100 | > 100 | > 100 | > 100 | > 100 |  | > 100 |  |  |  |  | 
8 | Cc1ccc(Cc2cc(N3CCN(c4cccc(Cl)c4)CC3)nnc2C)cc1 | > 100 |  | > 100 | > 100 | > 100 |  |  |  | > 100 | > 100 |  |  |  |  | 
9 | CC(C)C(Nc1ncnc2nc[nH]c12)C(=O)O (configuration not stated) | > 100 |  | > 100 | > 100 | > 100 | > 100 | > 100 | > 100 | > 100 | > 100 |  |  |  |  | 
10 | C/C=C1/CN2CCC34c5ccccc5N(C)C23C2CC1C4(C(=O)OC)C(OC(C)=O)O2 (configuration not stated) | > 100 | > 100 |  | > 100 | > 100 | > 100 | > 100 | > 100 | > 100 | > 100 |  |  |  |  | 
11 | CCOC(=O)c1c(NS(=O)(=O)c2ccc(C)cc2)sc2c1CCCC2 |  | > 100 |  |  | 60.2 | > 100 |  | > 100 | > 100 | 72.7 |  |  |  |  | 
12 | COC1=C[C@]2(CCC(=O)O2)[C@@H]2Cc3ccccc3[C@H](O)[C@@H]2C1=O | 79.6 | 38.9 |  | 31 | > 100 | 77.6 | > 100 | > 100 | > 100 | > 100 |  |  |  |  | 
13 | CC1(C)OC[C@H](C(=N)OCc2ccccc2)O1 | > 100 | > 100 | > 100 |  | > 100 | > 100 | > 100 | > 100 |  | > 100 |  |  |  |  | 
14 | O=c1c2c3c(sc2nc2n1N=CN(c1ccccc1)C2)CCCC3 | > 100 | > 100 | > 100 | > 100 | > 100 |  | > 100 | > 100 | > 100 | > 100 |  |  |  |  | 
15 | CC(=O)OCC1OC(N2C(=O)NC(=O)C3C=C4CCCCC4=CC32)CC1OC(C)=O (configuration not stated) | > 100 | > 100 |  | > 100 | > 100 | > 100 | > 100 | > 100 | > 100 | > 100 |  |  |  |  | 
16 | COc1ccccc1NC(=S)N=Nc1c(O)[nH]c2ccccc12 | > 100 | > 100 | > 100 | > 100 | > 100 |  | > 100 | > 100 |  | > 100 |  |  |  |  | 
17 | CN(C)C(=O)Oc1c(Br)cc(Br)cc1C(=O)OCc1ccccc1 | 56.2 | 44.3 | > 75.6 |  | > 71.2 | 49.9 | 42.8 | > 77.3 |  | 68.9 |  |  |  |  | 
18 | COc1cc(C2c3cc4c(cc3OC(NNC(N)=O)C2C)OCO4)cc(OC)c1OC (configuration not stated) |  | > 100 | > 100 |  |  |  | 8.18 | 3.7 | > 100 | > 72.6 |  |  |  |  | 
19 | CCc1cc(C)cc2[n+]1CC=C2 | > 100 |  | > 100 |  | 51.3 | 12.8 | 45 | 80.8 |  | 68.9 |  |  |  |  | 
20 | CCC(C)(C)c1cc(O)c(C(C)(C)CC)cc1O | 6.23 |  | 7.25 | 10.9 |  |  | 5.62 | 15.2 |  |  | 2.18 | 2.69 | 2.62 | 1.63 | 3.63
21 | CCOC(=O)c1[nH]cc(C)c1-c1cccn1-c1ccc(Cl)cc1[N+](=O)[O-] | 33.1 | 46.4 | 33.5 | 56.6 | 44.9 |  | 51.9 | 46.2 | 83.7 | 54.9 |  |  |  |  | 
22 | O[C@@H]1C[C@H](Cl)c2c(Cl)sc(Cl)c21 | > 100 | > 100 | > 100 | > 100 | > 100 |  |  |  | > 100 | > 100 |  |  |  |  | 
23 | CSc1ncc2c(n1)-c1ccccc1OC2N1CCOCC1 (configuration not stated) | > 100 | > 100 | > 100 | > 100 |  | 83.9 | > 100 | > 100 | > 100 | > 100 |  |  |  |  | 
24 | CCN1c2ccccc2NC(=S)c2c1n[nH]c2-c1ccccc1 | 50.1 | 38.2 | > 100 | 52.5 |  | 29.9 | > 100 |  | > 100 |  |  |  |  |  | 
